# According to patent US12492243B2, “DNA antibody constructs for use against Pseudomonas aeruginosa” (priority 2016, dated 2025):
# System: Pseudomonas aeruginosa strain 6077
# Test: Lethal pneumonia challenge in BALB/c mice
# Format: in vivo
# Settings: MEM 2.3 mg/kg alone or DMAb-DVSF3 100 μg, lethal PA 6077
# Protocol: The unrelated dengue virus DMAb-DVSF3^20 was included as a control. A fourth group of animals received an intraperitoneal (IP) injection of purified protein IgG ABC123 (2 mg/kg) on day −1 before challenge. […] Animals were monitored for 6 days following intranasal challenge for survival as described in^16. Briefly, animals were anesthetized with ketamine and xylazine followed by intranasal administration of the bacterial inoculum contained in 0.05 ml. […] IL-1β, IL-6 and KC/GRO were quantified from the supernatant of lung homogenates using a multiplex kit (Meso Scale Diagnostics) according to the manufactures instructions. For DMAb and meropenem (MEM) combination experiments, MEM was administered subcutaneously 4 hours after infection.
smiles,measurement,value
"C[C@@H](O)[C@H]1C(=O)N2C(C(=O)O)=C(S[C@@H]3CN[C@H](C(=O)N(C)C)C3)[C@H](C)[C@H]12 [MEM, meropenem, reference compound]","survival, DMAb and meropenem combination experiment",did not survive
